# Measured values as given in patent publication US20230301300A1, “HERBICIDAL COMPOSITIONS” (SYNGENTA CROP PROTECTION AG, priority 2020, published 2023).
# Legend:
# Test in all cases: B2 Post-Emergence Efficacy - Test 2
# Type in all cases: in vivo
# [1] = tested on: Abutilon theophrasti (ABUTH); details: 15 days after application, 0-100 scale
# Summary of the method: (§1)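 The compound, dissolved in IF50 and made up as an aqueous spray with 0.2% v/v Genapol X080, is applied post-emergence to plants raised for 12 days from seed. Injury is assessed 15 days afterwards, 0 for undamaged through 100 for fully killed.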
# [2] = tested on: Alopecurus myosuroides (ALOMY); details: 15 days after application, 0-100 scale
# Summary of the method: as §1
# [3] = tested on: Beta vulgaris (BEAVA); details: 15 days after application, 0-100 scale
# Summary of the method: as §1
# [4] = tested on: Bidens pilosa (BIDPI); details: 15 days after application, 0-100 scale
# Summary of the method: as §1
# [5] = tested on: Digitaria sanguinalis (DIGSA); details: 15 days after application, 0=no damage, 100=total kill
# Summary of the method: as §1
# [6] = tested on: Echinochloa crus galli (ECHCG); details: 15 days after application, 0=no damage, 100=total kill
# Summary of the method: as §1
# [7] = tested on: Euphorbia hetrophylla (EPHHL); details: 15 days after application, 0-100 scale
# Summary of the method: as §1
# [8] = tested on: Galium aparine (GALAP); details: 15 days after application, 0-100 scale
# Summary of the method: as §1
# [9] = tested on: Ipomoea hederacea (IPOHE); details: 15 days after application, 0-100 scale
# Summary of the method: as §1
# [10] = tested on: Lolium perenne (LOLPE); details: 15 days after application, 0-100 scale
# Summary of the method: as §1
# [11] = tested on: Orysa sativa (ORYSA); details: 15 days after application; for Herbicidal activity ORYSA: 0-100 scale; for Herbicidal activity on a 0-100 scale, ORYSA: 0=no damage, 100=total kill
# Summary of the method: as §1
# [12] = tested on: Panicum miliaceum (PANMI); details: 15 days after application, 0=no damage, 100=total kill
# Summary of the method: as §1
# [13] = tested on: Poa annua (POAAN); details: 15 days after application, 0-100 scale
# Summary of the method: as §1
# [14] = tested on: Sida spinosa (SIDSP); details: 15 days after application, 0-100 scale
# Summary of the method: as §1
# [15] = tested on: Sinapis arvensis (SINAR); details: 15 days after application, 0-100 scale
# Summary of the method: as §1
# [16] = tested on: Sorghum bicolour (SORVU); details: 15 days after application, 0=no damage, 100=total kill
# Summary of the method: as §1
# [17] = tested on: Veronica persica (VERPE); details: 15 days after application, 0-100 scale
# Summary of the method: as §1
# [18] = tested on: Xanthium strumarium (XANST); details: 15 days after application, 0-100 scale
# Summary of the method: as §1
structure (smiles),measurement,setting,value
"Cc1nn(C)c(=O)c(-c2c(F)ccc(Cl)c2CCc2ccc(C#N)cc2)c1O [Compound 1.024, 4-[3-chloro-6-fluoro-2-[2-[4-(cyano)phenyl]ethyl]phenyl]-5-hydroxy-2,6-dimethyl-pyridazin-3-one]",Herbicidal activity ABUTH,[1]; 15 g/Ha,90
same,Herbicidal activity ABUTH,[1]; 30 g/Ha,90
same,Herbicidal activity ABUTH,[1]; 60 g/Ha,100
same,Herbicidal activity ABUTH,[1]; 125 g/Ha,100
same,Herbicidal activity ABUTH,[1]; 250 g/Ha,100
same,Herbicidal activity ABUTH,[1]; 500 g/Ha,100
same,Herbicidal activity ALOMY,[2]; 15 g/Ha,10
same,Herbicidal activity ALOMY,[2]; 30 g/Ha,30
same,Herbicidal activity ALOMY,[2]; 60 g/Ha,50
same,Herbicidal activity ALOMY,[2]; 125 g/Ha,70
same,Herbicidal activity ALOMY,[2]; 250 g/Ha,70
same,Herbicidal activity ALOMY,[2]; 500 g/Ha,70
same,Herbicidal activity BEAVA,[3]; 15 g/Ha,70
same,Herbicidal activity BEAVA,[3]; 30 g/Ha,70
same,Herbicidal activity BEAVA,[3]; 60 g/Ha,80
same,Herbicidal activity BEAVA,[3]; 125 g/Ha,80
same,Herbicidal activity BEAVA,[3]; 250 g/Ha,80
same,Herbicidal activity BEAVA,[3]; 500 g/Ha,100
same,Herbicidal activity BIDPI,[4]; 15 g/Ha,80
same,Herbicidal activity BIDPI,[4]; 30 g/Ha,80
same,Herbicidal activity BIDPI,[4]; 60 g/Ha,80
same,Herbicidal activity BIDPI,[4]; 125 g/Ha,80
same,Herbicidal activity BIDPI,[4]; 250 g/Ha,80
same,Herbicidal activity BIDPI,[4]; 500 g/Ha,90
same,"Herbicidal activity on a 0-100 scale, DIGSA",[5]; 15 g/Ha,0
same,"Herbicidal activity on a 0-100 scale, DIGSA",[5]; 30 g/Ha,20
same,"Herbicidal activity on a 0-100 scale, DIGSA",[5]; 60 g/Ha,40
same,"Herbicidal activity on a 0-100 scale, DIGSA",[5]; 125 g/Ha,80
same,"Herbicidal activity on a 0-100 scale, DIGSA",[5]; 250 g/Ha,90
same,"Herbicidal activity on a 0-100 scale, DIGSA",[5]; 500 g/Ha,90
same,"Herbicidal activity on a 0-100 scale, ECHCG",[6]; 15 g/Ha,70
same,"Herbicidal activity on a 0-100 scale, ECHCG",[6]; 30 g/Ha,80
same,"Herbicidal activity on a 0-100 scale, ECHCG",[6]; 60 g/Ha,80
same,"Herbicidal activity on a 0-100 scale, ECHCG",[6]; 125 g/Ha,90
same,"Herbicidal activity on a 0-100 scale, ECHCG",[6]; 250 g/Ha,90
same,"Herbicidal activity on a 0-100 scale, ECHCG",[6]; 500 g/Ha,100
same,Herbicidal activity EPHHL,[7]; 15 g/Ha,70
same,Herbicidal activity EPHHL,[7]; 30 g/Ha,90
same,Herbicidal activity EPHHL,[7]; 60 g/Ha,90
same,Herbicidal activity EPHHL,[7]; 125 g/Ha,90
same,Herbicidal activity EPHHL,[7]; 250 g/Ha,100
same,Herbicidal activity EPHHL,[7]; 500 g/Ha,100
same,Herbicidal activity GALAP,[8]; 30 g/Ha,20
same,Herbicidal activity GALAP,[8]; 60 g/Ha,20
same,Herbicidal activity GALAP,[8]; 125 g/Ha,60
same,Herbicidal activity GALAP,[8]; 250 g/Ha,90
same,Herbicidal activity GALAP,[8]; 500 g/Ha,90
same,Herbicidal activity IPOHE,[9]; 30 g/Ha,100
same,Herbicidal activity IPOHE,[9]; 60 g/Ha,100
same,Herbicidal activity IPOHE,[9]; 125 g/Ha,100
same,Herbicidal activity IPOHE,[9]; 250 g/Ha,100
same,Herbicidal activity IPOHE,[9]; 500 g/Ha,100
same,Herbicidal activity LOLPE,[10]; 15 g/Ha,10
same,Herbicidal activity LOLPE,[10]; 30 g/Ha,70
same,Herbicidal activity LOLPE,[10]; 60 g/Ha,70
same,Herbicidal activity LOLPE,[10]; 125 g/Ha,90
same,Herbicidal activity LOLPE,[10]; 250 g/Ha,90
same,Herbicidal activity LOLPE,[10]; 500 g/Ha,90
same,Herbicidal activity ORYSA,[11]; 15 g/Ha,0
same,"Herbicidal activity on a 0-100 scale, ORYSA",[11]; 15 g/Ha,0
same,Herbicidal activity ORYSA,[11]; 30 g/Ha,0
same,"Herbicidal activity on a 0-100 scale, ORYSA",[11]; 30 g/Ha,0
same,Herbicidal activity ORYSA,[11]; 60 g/Ha,0
same,"Herbicidal activity on a 0-100 scale, ORYSA",[11]; 60 g/Ha,0
same,Herbicidal activity ORYSA,[11]; 125 g/Ha,0
same,"Herbicidal activity on a 0-100 scale, ORYSA",[11]; 125 g/Ha,0
same,Herbicidal activity ORYSA,[11]; 250 g/Ha,20
same,"Herbicidal activity on a 0-100 scale, ORYSA",[11]; 250 g/Ha,20
same,Herbicidal activity ORYSA,[11]; 500 g/Ha,40
same,"Herbicidal activity on a 0-100 scale, ORYSA",[11]; 500 g/Ha,40
same,"Herbicidal activity on a 0-100 scale, PANMI",[12]; 15 g/Ha,0
same,"Herbicidal activity on a 0-100 scale, PANMI",[12]; 30 g/Ha,70
same,"Herbicidal activity on a 0-100 scale, PANMI",[12]; 60 g/Ha,80
same,"Herbicidal activity on a 0-100 scale, PANMI",[12]; 125 g/Ha,90
same,"Herbicidal activity on a 0-100 scale, PANMI",[12]; 250 g/Ha,90
same,"Herbicidal activity on a 0-100 scale, PANMI",[12]; 500 g/Ha,100
same,Herbicidal activity POAAN,[13]; 15 g/Ha,10
same,Herbicidal activity POAAN,[13]; 30 g/Ha,20
same,Herbicidal activity POAAN,[13]; 60 g/Ha,30
same,Herbicidal activity POAAN,[13]; 125 g/Ha,80
same,Herbicidal activity POAAN,[13]; 250 g/Ha,80
same,Herbicidal activity POAAN,[13]; 500 g/Ha,90
same,Herbicidal activity SIDSP,[14]; 15 g/Ha,80
same,Herbicidal activity SIDSP,[14]; 30 g/Ha,90
same,Herbicidal activity SIDSP,[14]; 60 g/Ha,90
same,Herbicidal activity SIDSP,[14]; 125 g/Ha,100
same,Herbicidal activity SIDSP,[14]; 250 g/Ha,100
same,Herbicidal activity SIDSP,[14]; 500 g/Ha,100
same,Herbicidal activity SINAR,[15]; 15 g/Ha,80
same,Herbicidal activity SINAR,[15]; 30 g/Ha,80
same,Herbicidal activity SINAR,[15]; 60 g/Ha,80
same,Herbicidal activity SINAR,[15]; 250 g/Ha,90
same,Herbicidal activity SINAR,[15]; 500 g/Ha,100
same,"Herbicidal activity on a 0-100 scale, SORVU",[16]; 15 g/Ha,0
same,"Herbicidal activity on a 0-100 scale, SORVU",[16]; 30 g/Ha,10
same,"Herbicidal activity on a 0-100 scale, SORVU",[16]; 60 g/Ha,70
same,"Herbicidal activity on a 0-100 scale, SORVU",[16]; 125 g/Ha,80
same,"Herbicidal activity on a 0-100 scale, SORVU",[16]; 250 g/Ha,90
same,"Herbicidal activity on a 0-100 scale, SORVU",[16]; 500 g/Ha,100
same,Herbicidal activity VERPE,[17]; 15 g/Ha,80
same,Herbicidal activity VERPE,[17]; 30 g/Ha,80
same,Herbicidal activity VERPE,[17]; 60 g/Ha,90
same,Herbicidal activity VERPE,[17]; 125 g/Ha,80
same,Herbicidal activity VERPE,[17]; 250 g/Ha,100
same,Herbicidal activity VERPE,[17]; 500 g/Ha,100
same,Herbicidal activity XANST,[18]; 60 g/Ha,80
same,Herbicidal activity XANST,[18]; 125 g/Ha,80
same,Herbicidal activity XANST,[18]; 500 g/Ha,100
